Reference: patent US20060039866A1, “Method for treating sleep-related breathing disorders” (Cypress Bioscience, Inc., priority 2004, published 2006)

Experiments:
[1] = treating OSA with MER 810; details: in vivo
Description: The latter has been associated with worsening OSA symptoms due to reduction in upper airway tone in animal models. However, this pharmacology may also increase SWS and increase respiratory drive via peripheral effects, while its serotonin (5-HT) reuptake inhibition and 5-HT1A agonist activities decrease REM sleep. The 5-HT1A agonist activity also increases respiratory drive and may increase upper airway muscle tone (Homer). Adding a noradrenergic alpha1 agonist, alpha2 antagonist or reuptake inhibitor bolsters the latter effect.

[2] = system: patients with sleep apnea; details: cited from earlier work; for benefit in OSAS / obstructive sleep apnea: individuals with obstructive apnea
[3] = system: animal model of sleep apnea; details: cited from earlier work
rat model = details: cited from earlier work
[4] = individuals with obstructive sleep apnea

## CC1CN(c2cccc(Cl)c2)CCN1CCCn1nc2ccccn2c1=O (stereo not shown) [MER 810]
[1]
  effectiveness in treating OSA: quite effective

## CNCCCC1c2ccccc2C=Cc2ccccc21 [Protriptyline]
[2]; individuals with OSAS
  results of several small trials: variable results
[2]; several small trials
  side effects: frequent and significant side effects

## CC(=O)Nc1nnc(S(N)(=O)=O)s1 [acetazolamide, N-(5-[Aminosulfonyl]-1,3,4-thiadiazol-2-yl)acetamide]
[2]; Whyte et al., Sleep
  apnea/hypopnea frequency: improvement in apnea/hypopnea frequency
  frequency of 4% desaturation: decreased the frequency of 4% desaturation

## Nc1ncnc2c1ncn2[C@@H]1O[C@H](CO)[C@@H](O)[C@H]1O [adenosine]
[3]
  reducing apnea: somewhat effective

## CCN1CC(CCN2CCOCC2)C(c2ccccc2)(c2ccccc2)C1=O (stereo not shown) [doxapram]
[2]; [4]
  average arterial oxygen saturation: did not alter
  length of apneas: decrease the length of apneas

## CN1CCN2c3ncccc3Cc3ccccc3C2C1 (stereo not shown) [mirtazapine, 1,2,3,4,10,14b-hexahydro-2-methylpyrazino[2,1-a]pyrido[2,3-c]benzazepine]
Rat model
  efficacy in the rat model: appeared effective

## C=CCN1CC[C@]23c4c5ccc(O)c4O[C@H]2C(=O)CC[C@@]3(O)[C@H]1C5 [naloxone]
[2]
  benefit in OSAS / obstructive sleep apnea: only slightly helpful

## Cn1c(=O)c2[nH]cnc2n(C)c1=O [theophylline]
[2]
  benefit in OSAS / obstructive sleep apnea: of no use
[2]; patients with central apnea
  benefit in central apnea: may benefit

## medroxyprogesterone
[2]
  benefit in OSAS / obstructive sleep apnea: no consistent benefit
